Earlier results, collected in US20160367620A1, “GLUTATHIONE” (priority 2015, published 2016).

How the values were obtained:
HUVEC and QG90 cell = conditions: pretreatment of HUVEC, IL-1 induced; cited from earlier work
NFκB activation by LPS = conditions: rats; cited from earlier work
[1] = system: influenza virus specific lymphocytes; conditions: cited from earlier work
HIV-1 LTR = conditions: Jurkat cells; cited from earlier work
[2] = system: human immunodeficiency virus (HIV) expression; conditions: U1 cells; cited from earlier work
NFκB and COX-2 = conditions: cited from earlier work
[3] = system: human alveolar macrophages (AM); conditions: AM previously exposed to LPS; cited from earlier work
[4] = system: murine macrophage J774 cells; conditions: pretreatment; cited from earlier work
human IL-4 production = conditions: stimulated peripheral blood T cells, Th0- and Th2-like T cell clones; cited from earlier work

CC(=O)N[C@@H](CS)C(=O)O [NAC, N-Acetyl-L-Cysteine]
cell-to-cell attachment of cancer cells to HUVEC (HUVEC and QG90 cell): efficiently blocked the cell-to-cell attachment in a dose-dependent manner | NFκB activation by LPS (NFκB activation by LPS): decreased | decrease of lung lavage neutrophil count (NFκB activation by LPS): six fold | IFN γ production [1]: increased | influenza virus specific lymphocyte proliferation [1]: increased | specific activity of influenza specific CD8+ CTL's [1]: enhanced | induction of HIV-1 LTR-mediated gene expression by TNF-α and Tat (HIV-1 LTR): significantly suppressed | cytotoxic or cytostatic effects [2]: absence of cytotoxic or cytostatic effects | induction of HIV expression mediated by PMA, TNF-α, or IL-6 [2]: suppressed in a dose-dependent fashion | activation of NFκB and COX-2 by H. pylori infection (NFκB and COX-2): inhibited | IL-12 secretion [3]: enhanced | protection of macrophages against SNAP [4]: protected | human IL-4 production (human IL-4 production): decreased in a dose-dependent manner
